Source: ChEMBL document CHEMBL1131939, “The synthesis and P388 cytotoxicity of mycalazol 11 and related 5-acyl-2-hydroxymethylpyrroles” (1999)
Converted amounts (≈) assume the structure as drawn.

System: P388
Experiment: In vitro cytotoxicity against the P388 murine leukemia cell line was determined
Format: functional
Conditions: Mus musculus, read-out: ID50 (the source's name)

SMILES	IC50 [µg/mL]
CCCCCCCCCCCCC(=O)c1ccc(CO)[nH]1	52 (≈ 177 µM)
CCCCCCCCCCCC(=O)c1ccc(CO)[nH]1	21 (≈ 75.2 µM)
CCCCCC(=O)c1ccc(CO)[nH]1	78 (≈ 399 µM)
CCCCCCCCCCCCCCCCCCC(=O)c1ccc(CO)[nH]1	24 (≈ 63.6 µM)
